pIC50: −log10 of the molar value. Values belong to the compound of their own block, whether it stands above or below them.
What was measured:
animal models = test system: animal models; design: method as in PMID 30902655; details: cited from earlier work
patients with RUCC = details: cited from earlier work; for efficacy in treating RUCC patients: phase IIa setting
[1] = target: P2X3 homotrimeric receptors; design: method as in PMID 30902655; details: cited from earlier work
[2] = target: P2X2/3 heterotrimeric receptors; design: method as in PMID 30902655; details: cited from earlier work
[3] = target: T1, homotrimeric hP2X4 receptor (Homo sapiens, UniProt Q99571); test: Recombinant cell line selectivity assay
T1 sequence (Q99571 1-388): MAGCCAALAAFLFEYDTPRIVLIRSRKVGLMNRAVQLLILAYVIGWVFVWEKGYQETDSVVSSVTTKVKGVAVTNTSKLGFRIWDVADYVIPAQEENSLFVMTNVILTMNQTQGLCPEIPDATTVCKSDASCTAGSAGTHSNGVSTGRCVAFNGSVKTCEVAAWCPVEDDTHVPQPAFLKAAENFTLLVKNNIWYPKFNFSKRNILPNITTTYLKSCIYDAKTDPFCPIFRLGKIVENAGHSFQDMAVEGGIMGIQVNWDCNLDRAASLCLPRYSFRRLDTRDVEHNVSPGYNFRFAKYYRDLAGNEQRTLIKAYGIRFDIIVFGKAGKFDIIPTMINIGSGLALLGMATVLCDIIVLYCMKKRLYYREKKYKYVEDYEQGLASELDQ

[4] = test system: CFA-induced hyperalgesia in female C57BL/6 mice; test: Mouse CFA-induced mechanical hyperalgesia model (von Frey); details: oral twice daily, 48 h after CFA
Method: In this model, mechanical hyperalgesia was induced in female C57BL/6 mice (n = 9) by injecting CFA into the plantar surface of one hind paw and assessed using von Frey filaments. The filaments were used to stimulate the hind paw, and a behavioral response was measured depending on the strength of the von Frey filament used (expressed in [g]). […] Compounds were administered orally, twice daily, starting one hour before CFA injection. […] Mechanical hyperalgesia was induced in female C57BL/6 mice by injecting 30 µL of undiluted CFA into the medial left plantar hind paw. […] Mice were placed individually in transparent Plexiglas enclosures set on a wire mesh floor for at least 60 min prior to testing. Mechanical response thresholds were determined using calibrated von Frey monofilaments applied to the plantar surface of hind paws. The simplified up-down method[69] was used to estimate the 50% withdrawal threshold of contralateral and ipsilateral paws. […] All dose formulations were letter coded and administered to the animals by a technician not involved in conducting the behavioral von Frey testing. All von Frey measurements were performed by a second experimenter who was blinded to the treatments received by the animals. Upon completion of the experiments, mice were euthanized by exposure to carbon dioxide.

hP2X1 receptors = target: T2, hP2X1 receptors (Homo sapiens, UniProt P51575); test: Recombinant cell line selectivity assay
T2 sequence (P51575 1-399): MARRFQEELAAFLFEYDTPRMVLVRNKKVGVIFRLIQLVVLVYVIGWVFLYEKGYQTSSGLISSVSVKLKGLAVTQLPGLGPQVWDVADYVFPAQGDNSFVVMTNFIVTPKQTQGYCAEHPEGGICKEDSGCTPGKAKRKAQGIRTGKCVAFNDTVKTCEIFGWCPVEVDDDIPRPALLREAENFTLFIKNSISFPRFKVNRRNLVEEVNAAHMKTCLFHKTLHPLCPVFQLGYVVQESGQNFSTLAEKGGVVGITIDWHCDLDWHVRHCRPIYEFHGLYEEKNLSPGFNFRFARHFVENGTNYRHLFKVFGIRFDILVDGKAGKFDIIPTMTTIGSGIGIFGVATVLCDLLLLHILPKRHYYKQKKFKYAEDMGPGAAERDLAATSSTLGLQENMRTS

Half-life in rats = details: rat, in vivo; data not shown
rP2X3 receptors = target: T3, rP2X3 receptors (Rattus norvegicus, UniProt P49654); test: cell-based
T3 sequence (P49654 1-397): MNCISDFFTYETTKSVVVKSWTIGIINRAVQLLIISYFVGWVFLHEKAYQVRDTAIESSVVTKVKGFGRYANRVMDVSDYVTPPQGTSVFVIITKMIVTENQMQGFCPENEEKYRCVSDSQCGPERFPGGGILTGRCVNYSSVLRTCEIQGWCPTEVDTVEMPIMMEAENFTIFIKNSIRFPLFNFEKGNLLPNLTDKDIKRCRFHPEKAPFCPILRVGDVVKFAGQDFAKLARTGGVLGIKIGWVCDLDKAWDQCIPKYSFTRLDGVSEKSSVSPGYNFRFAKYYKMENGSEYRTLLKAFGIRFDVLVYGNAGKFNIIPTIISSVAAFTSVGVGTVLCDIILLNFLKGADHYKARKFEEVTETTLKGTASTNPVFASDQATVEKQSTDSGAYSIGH
Method: (§1) Cells were maintained in Dulbecco’s Modified Eagle Medium (DMEM) media (Sigma) supplemented with 10% fetal bovine serum (FBS) (Sigma) in a humidified incubator with 5% CO2 at 37 °C.
(§2) P2X receptor-induced changes in intracellular calcium levels were monitored using the calcium-chelating dye, Fluo-4AM (Molecular Probes), quantitated with a fluorescence imaging plate reader (FLEX/FLIPR station; Molecular Devices, Sunnyvale, CA, USA). Cells expressing P2X3 or P2X2/3 receptors were plated at a density of 15,000 cells/well in collagen-coated 384-well plates approximately 20 h before assay.

[5] = test system: vaginal hyperalgesia in female Sprague Dawley rats; test: Rat dyspareunia model (VMR to vaginal distension); details: vs vehicle
Method: The visceromotor response (VMR) to vaginal distension using an inflated vaginal balloon was determined by counting the number of abdominal muscle contractions via electromyography (EMG) in conscious animals as an objective measure of vaginal sensitivity. […] The VMR response to vaginal distension was measured at week five (on-drug) and week six (one week off-drug) post-implantation of uterine horn pieces.
The VMR to vaginal distension was used in conscious animals as an objective measure of vaginal sensitivity. […] In addition, to measure the VMR response, two Teflon-coated wire electrodes (AS632; Cooner Wire, USA) were sutured in the external oblique abdominal muscle, and then tunneled subcutaneously to be exteriorized at the base of the neck for future access. […] On the day of VMR assessment, a lubricated small balloon (embolectomy catheter 5F, 1 cm in length; IsoMed, France) was inserted into the mid-vaginal canal. […] The magnitude of the VMR at each vaginal distension test was quantified by counting manually the number of EMG spike bursts (or abdominal muscle contractions) per period of 40 s (= 0.1 mL distension volume). […] For each animal, the cumulative number of abdominal contractions was calculated and plotted against vaginal distension volume, and the corresponding AUC was calculated. […]
All data are expressed as mean (or mean ± SD), unless otherwise indicated.

[6] = target: T4, native channels from DRG (predominately P2X3 receptors) (Rattus norvegicus, UniProt P49654); test: Whole-cell patch-clamp assay in rat neurons (DRG); format: cell-based; details: female Sprague Dawley rat neurons, α,β-meATP 10 µM
T4 construct: native channels from both DRG (predominately P2X3 receptors) and nodose ganglia (NDG, predominately P2X2/3 receptors) rat tissues; from tissue; host or cells: primary neurons from dorsal root ganglia (L6–L4) of female Sprague Dawley rats
T4 sequence (P49654 1-397): T3 sequence (P49654 1-397)
Method: Experiments were performed under the whole-cell patch-clamp configuration at a holding potential of – 80 mV at room temperature. […] The cells were dissociated with Accumax, centrifuged at 1000 rpm for 3 min, re-suspended in manual patch-clamp buffer, and then plated in dishes at a density of ~ 50,000 cells/dish. The currents were recorded using HEKA amplifiers and Patchmaster software (HEKA Electronics). The bath solution contained 140 mM NaCl, 5 mM KCl, 1 mM CaCl2, 2 mM MgCl2, 25 mM HEPES, and 10 mM glucose, at pH 7.4. The intracellular solution contained 140 mM CsCl, 10 mM HEPES, and 10 mM BAPTA, at pH 7.0. […] The recordings were performed in a cumulative manner with 4- or 8-min incubation times per compound concentration. Hexokinase (50 U/mL) was added to reduce channel desensitization when recording human and rat P2X3 receptor neurons. A seal resistance of minimum 250 MΩ and a series resistance of less than 20 MΩ were applied as quality control parameters. The effect at each concentration of antagonist was determined according to the following equation: % response = (100 * Idrug)/Icontrol), where Icontrol was the peak current amplitude of the last agonist addition prior to incubation with the antagonist, and Idrug was the peak current amplitude in the presence of an antagonist. Each concentration of antagonist was tested on a minimum of three independent cells. […]

rP2X2/3 receptors = target: T5, rP2X2/3 receptors (Rattus norvegicus, UniProt P49653+P49654); test: FLIPR calcium flux assay, recombinant cells; format: cell-based
T5 sequence (P49654 1-397): T3 sequence (P49654 1-397)
T5 sequence (P49653 1-472): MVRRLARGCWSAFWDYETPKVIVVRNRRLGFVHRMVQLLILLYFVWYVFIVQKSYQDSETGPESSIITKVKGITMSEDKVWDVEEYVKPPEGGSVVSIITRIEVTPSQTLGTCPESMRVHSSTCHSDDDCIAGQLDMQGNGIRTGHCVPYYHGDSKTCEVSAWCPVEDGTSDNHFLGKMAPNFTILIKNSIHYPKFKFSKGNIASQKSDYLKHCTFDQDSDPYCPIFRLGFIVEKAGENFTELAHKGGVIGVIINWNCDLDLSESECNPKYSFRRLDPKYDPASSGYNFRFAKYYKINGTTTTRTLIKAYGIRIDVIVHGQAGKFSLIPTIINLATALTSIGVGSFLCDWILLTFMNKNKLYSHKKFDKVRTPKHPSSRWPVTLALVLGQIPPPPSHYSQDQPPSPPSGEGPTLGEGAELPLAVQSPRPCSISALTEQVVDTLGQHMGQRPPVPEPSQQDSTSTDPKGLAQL
Method: as §1, §2

[7] = test system: CFA-induced mechanical hyperalgesia in male Sprague Dawley rats; test: Rat CFA-induced mechanical hyperalgesia model (PAM, paw withdrawal threshold)
Method: Mechanical hyperalgesia was induced in 32 healthy male Sprague Dawley rats by injecting 25 µL of CFA (1 mg/mL) unilateral into the plantar surface of one hind paw. Mechanical hyperalgesia was measured using the Pressure Application Measurement apparatus (Ugo Basile, Comerio, Italy). Briefly, a linearly increasing pressure was applied to an area of ~ 50 mm^2 of the plantar side of the hind paw until a behavioral response (paw withdrawal) was observed, or until the pressure reached 1000-g force. The pressure at which the behavioral response occurred was recorded as the PWT. Both CFA-injected and contralateral PWTs were determined for each rat, in each treatment group, and at each time point of the study. […] All dose formulations were letter coded and administered to the animals by one technician not involved in conducting the behavioral PAM testing. All PAM measurements were performed by a second technician who was blinded to the treatments received by the animals.
All data are expressed as mean (or mean ± SD), unless otherwise indicated. Data were analyzed with either GraphPad Prism (v6.03, https://www.graphpad.com/scientific-software/prism/) or the Excel Fit software. For the rat hyperalgesia model, data were analyzed by computing the mean PWT for each treatment group, for CFA-injected and non-injected hind paws, and at each time point of the study. Mechanical hyperalgesia in vehicle control group was evaluated by carrying out an unpaired t-test between ipsilateral and contralateral paw values at each time point. The effect of the test compound on hyperalgesia was evaluated by performing a two-way repeated measures-ANOVA on ipsilateral paw values, followed by a Dunnett’s post-hoc test, provided that a main effect for treatment was detected. The effect of the test compound on contralateral response was evaluated following the same statistical procedure. […] A Grubbs’ test was also performed on individual values to reveal potential outliers. A p-value of < 0.05 was considered statistically significant.

Half-life in humans = details: human, in vivo; data not shown
[8] = target: T6, homotrimeric hP2X7 receptor (Homo sapiens, UniProt Q99572); test: Recombinant cell line selectivity assay
T6 sequence (Q99572 1-595): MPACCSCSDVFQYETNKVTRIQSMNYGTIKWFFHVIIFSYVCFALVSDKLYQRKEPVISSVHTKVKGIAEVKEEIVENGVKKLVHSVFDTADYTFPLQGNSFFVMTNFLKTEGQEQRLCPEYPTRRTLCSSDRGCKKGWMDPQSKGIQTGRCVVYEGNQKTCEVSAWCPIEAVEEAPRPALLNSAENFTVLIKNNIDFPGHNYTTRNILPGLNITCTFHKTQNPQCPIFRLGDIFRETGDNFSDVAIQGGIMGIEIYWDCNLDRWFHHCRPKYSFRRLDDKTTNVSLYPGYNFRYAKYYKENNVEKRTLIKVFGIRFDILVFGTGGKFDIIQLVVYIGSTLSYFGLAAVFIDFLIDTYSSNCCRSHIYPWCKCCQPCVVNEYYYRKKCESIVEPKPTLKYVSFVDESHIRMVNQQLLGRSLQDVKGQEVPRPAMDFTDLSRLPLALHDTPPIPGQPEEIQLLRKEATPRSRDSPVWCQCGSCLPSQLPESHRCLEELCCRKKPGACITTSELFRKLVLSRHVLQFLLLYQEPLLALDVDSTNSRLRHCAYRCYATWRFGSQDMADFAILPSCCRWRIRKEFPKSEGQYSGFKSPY

[9] = test system: neurogenic plasma extravasation in female Sprague Dawley rats; test: Rat model of uterine neurogenic inflammation (mustard oil, Evans blue); format: in vivo; details: i.v. bolus 0.7 mg/kg then infusion 0.2 mg/kg/h, vs vehicle, P < 0.01

Structure (SMILES): CNC(=O)c1cc(F)c(-c2nc3cc(C)ccn3c2C[C@H]2CN(C(=O)OC)CCO2)c(F)c1 [BLU-5937]
- antitussive efficacy and taste disturbances in animal models (animal models): antitussive efficacy with a lack of taste disturbances
- primary endpoint in phase IIa study (patients with RUCC; subjects with RUCC): did not reach its desired primary endpoint
- pIC50 [1]: 7.60
- pIC50 [2]: < 4.62

Structure (SMILES): C[C@@H](Cn1c(=O)[nH]/c(=N\c2ccc(Oc3ccccn3)cc2)n(Cc2ccc(Cl)cc2)c1=O)C(=O)O [S-600918]
- cough reduction and taste disturbance (patients with RUCC; patients with RUCC (n = 31)): reduce cough with a low incidence of taste disturbance
- efficacy in treating RUCC patients (patients with RUCC): shown efficacy

- pIC50 [3]: 4.30
- pIC50 (hP2X1 receptors): 4.30
- half-life (Half-life in rats): ~2.8 h
- pIC50 (rP2X3 receptors): 8.40
- pIC50 [6]: ~7.72
- pIC50 (rP2X2/3 receptors): 7.64
- half-life (Half-life in humans): > 24 h
- pIC50 [8]: 4.30
Structure (SMILES): Cc1cnc(-c2cc(O[C@@H]3CCOC3)cc(C(=O)N[C@H](C)c3cnc(C(F)(F)F)nc3)c2)s1 [eliapixant]
- minimal effective oral dose, reversal of hyperalgesia in CFA-injected paw [4]: 5 mg/kg
- tolerability and taste-related adverse events (patients with RUCC; phase IIa and Ph IIb study in patients with RUCC): well tolerated with a low rate of mild taste-related adverse events
- efficacy in treating RUCC patients (patients with RUCC): shown efficacy
- vaginal hyperalgesia (AUC of cumulative abdominal contractions), 1 week off drug ([5]; 15 mg/kg oral twice daily weeks 4-5, 6 weeks post-implantation, P < 0.01): significantly decreased vaginal hyperalgesia
- vaginal hyperalgesia (AUC of cumulative abdominal contractions), on drug ([5]; 15 mg/kg oral twice daily, 5 weeks post-implantation, P < 0.05): significantly decreased vaginal hyperalgesia
- receptor occupancy corresponding to plasma exposures at which efficacy (reversal of hyperalgesia > 50%) was observed ([7]; rat CFA model, data not shown): 80%
- effect on mechanical hyperalgesia (PWT), low dose ([7]; rat, oral 1 mg/kg, n = 8, P < 0.05): moderate and statistically significant at 2 h post-treatment
- effect on mechanical hyperalgesia (PWT), medium dose ([7]; rat, oral 3 mg/kg, n = 8, 2, 4, 6 h, P < 0.05 to 0.0001): robust and significant at each time point of the study
- effect on mechanical hyperalgesia (PWT), high dose ([7]; rat, oral 10 mg/kg, n = 8, 2, 4, 6 h, P < 0.05 to 0.0001): robust and significant at each time point of the study
- effect on mechanical hyperalgesia (Paw Withdrawal Threshold) ([7]; rat, oral, 1, 3, 10 mg/kg, 24 h after CFA, 2, 4, 6 h post-dose): significantly reduced mechanical hyperalgesia in a dose-dependent manner
- number of blue dots on the skin (neurogenic plasma extravasation) [9]: significantly reduced number of blue dots on the skin

Structure (SMILES): COc1cc(C(C)C)c(Oc2cnc(N)nc2N)cc1S(N)(=O)=O [gefapixant]
- taste-related AEs, participants (patients with RUCC; latest phase III data, RUCC): 58–69%
